Data from ChEMBL document CHEMBL5537169, “Structure-Activity Relationships and Discovery of (S)-6-Isopropyl-2-methoxy-3-(3-methoxypropoxy)-10-oxo-5,10-dihydro-6H-pyrido[1,2-h][1,7]naphthyridine-9-carboxylic Acid (AB-452), a Novel Orally Available HBV RNA Destabilizer” (J Med Chem, 2024).
In brackets after ≈: the same amount, converted by molar mass. Activity calls are given as the source filed them. The rule behind the calls is not given here.

Legend:
[1] = Cardiotoxicity in Langendorff-perfused New Zealand White rabbit heart assessed as increase in PR interval incubated for 45 mins by ECG analysis; format: toxicity, tissue-based, Oryctolagus cuniculus; settings: 0.75 h
[2] = AUCinfinity in CD-1 mouse at 10 mg/kg,po measured at 0.083 to 24 hrs post administration by LC-MS/MS analysis; format: ADME, organism-based; settings: in vivo, time 0.083-24 hrs
[3] = system: HepG2 2.2.15; assay: Cytotoxicity against human HepG2.2.15 cells by Cell-titer Glo luminescent assay; format: functional
[4] = Cardiotoxicity in Langendorff-perfused New Zealand White rabbit heart assessed as increase in QRS interval incubated for 45 mins by ECG analysis; format: toxicity, tissue-based, Oryctolagus cuniculus; settings: 0.75 h
[5] = Tmax in CD-1 mouse at 10 mg/kg,po measured at 0.083 to 24 hrs post administration by LC-MS/MS analysis; format: ADME, organism-based; settings: in vivo, time 0.083-24 hrs
[6] = target: Cytochrome P450 2C9 (Homo sapiens, UniProt P11712); assay: Reversible inhibition of CYP2C9 in human liver microsomes using diclofenac as substrate pre-incubated for 30 mins followed by NADPH addition and measured after 10 mins by LC-MS/MS analysis; format: ADME, Microsome
[7] = target: Cytochrome P450 3A4 (Homo sapiens, UniProt P08684); assay: Reversible inhibition of CYP3A4 in human liver microsomes using midazolam as substrate pre-incubated for 30 mins followed by NADPH addition and measured after 10 mins by LC-MS/MS analysis; format: ADME, Microsome
[8] = AUCinfinity in Beagle dog at 2 mg/kg,iv measured at 0.083 to 24 hrs post administration by LC-MS/MS analysis; format: ADME, organism-based, Canis lupus familiaris; settings: in vivo, time 0.083-24 hrs; for AUC(0-inf): Beagle
[9] = Apparent volume of distribution at steady state in CD-1 mouse at 10 mg/kg,po measured at 0.083 to 24 hrs post administration by LC-MS/MS analysis; format: ADME, organism-based; settings: in vivo, time 0.083-24 hrs
[10] = target: Cytochrome P450 2D6 (Homo sapiens, UniProt P10635); assay: Reversible inhibition of CYP2D6 in human liver microsomes using dextromethorphan as substrate pre-incubated for 30 mins followed by NADPH addition and measured after 10 mins by LC-MS/MS analysis; format: ADME, Microsome
[11] = Efflux ratio of apparent permeability from […] in human Caco-2 cells incubated for 120 mins by LC-MS/MS analysis; format: ADME, cell-based; settings: caco-2, 2 h
[12] = Drug accumulation in CD-1 mouse liver at 10 mg/kg,po measured at 0.083 to 24 hrs post administration by LC-MS/MS analysis; format: ADME, organism-based; settings: in vivo, time 0.083-24 hrs
[13] = Kinetic solubility of compound in PBS at pH 4 incubated for 24 hrs by UPLC-UV analysis; format: physicochemical; settings: read-out: Kinetic_solubility
[14] = Half life in Sprague-Dawley rat at 10 mg/kg,po measured at 0.083 to 24 hrs post administration by LC-MS/MS analysis; format: ADME, organism-based; settings: Sprague-Dawley, in vivo, time 0.083-24 hrs
[15] = Clearance in Beagle dog at 2 mg/kg,iv measured at 0.083 to 24 hrs post administration by LC-MS/MS analysis; format: ADME, organism-based, Canis lupus familiaris; settings: in vivo, time 0.083-24 hrs
[16] = Half life in Sprague-Dawley rat at 2 mg/kg,iv measured at 0.083 to 24 hrs post administration by LC-MS/MS analysis; format: ADME, organism-based; settings: in vivo, time 0.083-24 hrs
[17] = Drug accumulation in CD-1 mouse liver assessed as fold change in drug uptake at 10 mg/kg,po measured at 0.083 to 24 hrs post administration by LC-MS/MS analysis; format: ADME, organism-based; settings: in vivo, time 0.083-24 hrs
[18] = Cmax in CD-1 mouse at 2 mg/kg,iv measured at 0.083 to 24 hrs post administration by LC-MS/MS analysis; format: ADME, organism-based; settings: in vivo, time 0.083-24 hrs
[19] = AUCinfinity in CD-1 mouse at 2 mg/kg,iv measured at 0.083 to 24 hrs post administration by LC-MS/MS analysis; format: ADME, organism-based; settings: in vivo, time 0.083-24 hrs
[20] = Cmax in Sprague-Dawley rat at 10 mg/kg,po measured at 0.083 to 24 hrs post administration by LC-MS/MS analysis; format: ADME, organism-based; settings: Sprague-Dawley, in vivo, time 0.083-24 hrs, read-out: Cmax
[21] = Drug accumulation in Sprague-Dawley rat liver assessed as fold change in drug uptake at 10 mg/kg,po measured at 0.083 to 24 hrs post administration by LC-MS/MS analysis; format: ADME, organism-based; settings: in vivo, time 0.083-24 hrs
[22] = Drug accumulation in CD-1 mouse plasma assessed as fold change in drug uptake at 10 mg/kg,po measured at 0.083 to 24 hrs post administration by LC-MS/MS analysis; format: ADME, organism-based; settings: in vivo, time 0.083-24 hrs
[23] = Half life in CD-1 mouse at 2 mg/kg,iv measured at 0.083 to 24 hrs post administration by LC-MS/MS analysis; format: ADME, organism-based; settings: in vivo, time 0.083-24 hrs
[24] = Apparent volume of distribution at steady state in Sprague-Dawley rat at 2 mg/kg,iv measured at 0.083 to 24 hrs post administration by LC-MS/MS analysis; format: ADME, organism-based; settings: in vivo, time 0.083-24 hrs, read-out: Vdss(app)
[25] = Toxicity in dog assessed as NOAEL administrated for 28 days; design: species or system Canis lupus familiaris; settings: in vivo, time 28 day
[26] = Apparent volume of distribution at steady state in CD-1 mouse at 2 mg/kg,iv measured at 0.083 to 24 hrs post administration by LC-MS/MS analysis; format: ADME, organism-based; settings: in vivo, time 0.083-24 hrs, read-out: Vdss(app)
[27] = AUCinfinity in Sprague-Dawley rat at 2 mg/kg,iv measured at 0.083 to 24 hrs post administration by LC-MS/MS analysis; format: ADME, organism-based; settings: Sprague-Dawley, in vivo, time 0.083-24 hrs
[28] = system: Hepatitis B virus; assay: Antiviral activity against AAV-Hepatitis B virus infected in C57BL/6 mouse assessed as serum HBsAg level at 10 mg/kg,po administrated once daily for 7 days by enzyme-linked immunoassay; format: functional; settings: time 7 day
[29] = Drug accumulation in Sprague-Dawley rat plasma assessed as fold change in drug uptake at 10 mg/kg,po measured at 0.083 to 24 hrs post administration by LC-MS/MS analysis; format: ADME, organism-based; settings: in vivo, time 0.083-24 hrs
[30] = system: Hepatitis B virus; assay: Antiviral activity against AAV-Hepatitis B virus infected in C57BL/6 mouse assessed as liver total HBV RNA level at 3 to 30 mg/kg,po administrated once daily for 7 days by branched DNA assay; format: functional, organism-based; settings: dose 3-30 mg/kg, time 7.0 day
[31] = system: Hepatitis B virus; assay: Antiviral activity against AAV-Hepatitis B virus infected in C57BL/6 mouse assessed as liver HBsAg level at 3 to 30 mg/kg,po administrated once daily for 7 days by enzyme-linked immunoassay; format: functional, organism-based; settings: dose 3-30 mg/kg, time 7.0 day
[32] = Cmax in Sprague-Dawley rat at 2 mg/kg,iv measured at 0.083 to 24 hrs post administration by LC-MS/MS analysis; format: ADME, organism-based; settings: in vivo, time 0.083-24 hrs
[33] = system: Hepatitis B virus; assay: Antiviral activity against AAV-Hepatitis B virus infected in human Primary hepatocyte assessed as reduction in HBV DNA level measured after 16 days by ELISA; format: functional, organism-based; settings: 384 h
[34] = Clearance in Sprague-Dawley rat at 2 mg/kg,iv measured at 0.083 to 24 hrs post administration by LC-MS/MS analysis; format: ADME, organism-based; settings: in vivo, time 0.083-24 hrs
[35] = system: Hepatitis B virus; assay: Antiviral activity against AAV-Hepatitis B virus infected in C57BL/6 mouse assessed as serum HBsAg level at 3 mg/kg,po administrated once daily for 7 days by enzyme-linked immunoassay; format: functional; settings: time 7 day

Cytochrome P450 2C9, sequence (P11712 whole entry): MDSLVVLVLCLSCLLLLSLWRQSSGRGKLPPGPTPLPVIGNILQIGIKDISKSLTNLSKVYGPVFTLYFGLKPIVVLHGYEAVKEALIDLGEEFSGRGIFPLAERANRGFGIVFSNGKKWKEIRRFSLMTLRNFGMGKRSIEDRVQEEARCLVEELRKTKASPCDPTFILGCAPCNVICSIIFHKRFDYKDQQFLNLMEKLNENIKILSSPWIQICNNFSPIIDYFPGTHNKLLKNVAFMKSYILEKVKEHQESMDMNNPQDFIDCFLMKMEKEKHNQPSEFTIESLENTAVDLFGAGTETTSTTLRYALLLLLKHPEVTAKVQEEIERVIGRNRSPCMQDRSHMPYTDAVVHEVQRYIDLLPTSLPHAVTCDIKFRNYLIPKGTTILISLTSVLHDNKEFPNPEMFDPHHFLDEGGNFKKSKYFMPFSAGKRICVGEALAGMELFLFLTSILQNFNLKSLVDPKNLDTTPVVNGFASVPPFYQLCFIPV
Cytochrome P450 3A4, sequence (P08684 whole entry): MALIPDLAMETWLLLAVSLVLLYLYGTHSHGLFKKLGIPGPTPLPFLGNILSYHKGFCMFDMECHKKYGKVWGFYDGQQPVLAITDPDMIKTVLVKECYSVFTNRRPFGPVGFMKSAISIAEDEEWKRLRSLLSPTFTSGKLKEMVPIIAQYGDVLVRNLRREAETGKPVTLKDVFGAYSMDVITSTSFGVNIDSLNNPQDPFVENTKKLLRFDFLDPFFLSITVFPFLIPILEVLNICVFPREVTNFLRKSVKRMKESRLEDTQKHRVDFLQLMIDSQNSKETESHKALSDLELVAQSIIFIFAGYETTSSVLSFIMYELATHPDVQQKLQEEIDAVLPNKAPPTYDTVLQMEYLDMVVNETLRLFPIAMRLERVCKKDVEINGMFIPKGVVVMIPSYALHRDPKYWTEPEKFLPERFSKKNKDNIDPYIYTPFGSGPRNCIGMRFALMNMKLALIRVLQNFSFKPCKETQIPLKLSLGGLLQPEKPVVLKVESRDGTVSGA
Cytochrome P450 2D6, sequence (P10635 whole entry): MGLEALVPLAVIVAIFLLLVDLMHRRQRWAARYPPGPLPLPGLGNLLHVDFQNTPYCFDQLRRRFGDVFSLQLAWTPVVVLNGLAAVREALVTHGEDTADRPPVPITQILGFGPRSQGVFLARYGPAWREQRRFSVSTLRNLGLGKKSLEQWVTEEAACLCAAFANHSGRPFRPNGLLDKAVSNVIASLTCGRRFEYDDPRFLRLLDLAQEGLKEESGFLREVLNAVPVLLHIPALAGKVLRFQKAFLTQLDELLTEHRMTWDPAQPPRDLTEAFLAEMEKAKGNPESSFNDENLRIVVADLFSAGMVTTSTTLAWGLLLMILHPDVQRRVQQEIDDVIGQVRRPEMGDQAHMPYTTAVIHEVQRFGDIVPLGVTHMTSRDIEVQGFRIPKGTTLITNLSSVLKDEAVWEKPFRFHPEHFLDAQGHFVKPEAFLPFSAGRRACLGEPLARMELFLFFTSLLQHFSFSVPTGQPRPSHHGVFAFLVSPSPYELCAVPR

AUC(0-inf) [2]	half-life [14]	SMILES	Activity [1]	CC50 [3]	Activity [4]	IC50 [6]	IC50 [7]	AUC(0-inf) [8]	IC50 [10]	Ratio [11]	solubility kinetic at 24 h [13]	clearance [15]	half-life [16]	fold change (FC) [17]	Cmax [18]	AUC(0-inf) [19]	Cmax [20]	fold change (FC) [21]	fold change (FC) [22]	half-life [23]	further results
5880 ng·h/mL	2.8 h	COCCCOc1cc2c(cc1Cl)-c1cc(=O)c(C(=O)O)cn1[C@H](C(C)C)CO2	Toxic	39 µM	Toxic	> 25 µM	> 25 µM	3370 ng·h/mL	> 25 µM	1.5	31 µM (≈ 13.1 µg/mL)	10 mL/min/kg									Tmax [5]: 4.1 h; Vdss(app) [9]: 1.1 L/kg; Ct [12]: 425 ng/g
6150 ng·h/mL	3.4 h	COCCCOc1cc2c(cc1OC)-c1cc(=O)c(C(=O)O)cn1[C@H](C(C)C)C2	Toxic		Toxic								1.3 h	< 1	1150 ng/mL	1280 ng·h/mL	1190 ng/mL	12	< 1	1 h	AUC ([8]; iv, 2 mg/kg): 2362 ng·h/mL; Vd [24]: 0.7 L/kg; Vd [26]: 1.2 L/kg; AUC(0-inf) [27]: 4760 ng·h/mL; fold change (FC) [29]: 3.4; Cmax [32]: 4950 ng/mL; clearance [34]: 8.6 mL/min/kg

SMILES	AUC(0-inf) [2]	half-life [14]	Activity [1]	CC50 [3]	Activity [4]	IC50 [6]	IC50 [7]	AUC(0-inf) [8]	IC50 [10]	Ratio [11]	solubility kinetic at 24 h [13]	clearance [15]	half-life [16]	fold change (FC) [17]	Cmax [18]	AUC(0-inf) [19]	Cmax [20]	fold change (FC) [21]	fold change (FC) [22]	half-life [23]	further results
COCCCOc1cc2c(nc1OC)-c1cc(=O)c(C(=O)O)cn1[C@H](C(C)C)C2	5680 ng·h/mL	3.4 h		> 50 µM		> 25 µM	> 25 µM	6410 ng·h/mL	> 25 µM	3.8	> 200 µM	5.4 mL/min/kg	1.3 h	2.6	1180 ng/mL	1150 ng·h/mL	1540 ng/mL	28	8.6	0.9 h	Vd [24]: 0.7 L/kg; NOAEL at 672 h [25]: 30 mg/kg; Vd [26]: 1.5 L/kg; AUC(0-inf) [27]: 3500 ng·h/mL; Activity [28]: 1.64 log10CFU; fold change (FC) [29]: 8.7; Activity [30]: Active; Activity [31]: Active; Cmax [32]: 3240 ng/mL; EC50 [33]: 0.003 µM; clearance [34]: 9.6 mL/min/kg; Activity [35]: 0.74 log10CFU
